Test results as given in ChEMBL document CHEMBL1151517, “Morpholinoalkylindenes as antinociceptive agents: Novel cannabinoid receptor agonists” (Bioorg Med Chem Lett, 1995).

Legend:
Mus musculus [1] = assay: Concentration required for inhibition of electrically stimulated contraction of mouse vas deferens […]; format: functional
Mus musculus [2] = assay: Effective dose required for inhibition of oral acetylcholine (ACh) writhing activity in mice at 100 mg/Kg dose; format: functional
Cannabinoid receptor = Cannabinoid receptor (Rattus norvegicus, UniProt Q9QZN9+P20272); assay: Displacement of 0.5 nM [3H](R)-(+)-WIN-55212-2 from Cannabinoid receptor of rat cerebellar membranes; format: cell membranes, Membrane
[3] = target: Cannabinoid receptor (Rattus norvegicus) (UniProt Q9QZN9+P20272); assay: Inhibition to displace 50% of 0.5 nM [3H](R)-(+)-WIN-55212-2 binding to Cannabinoid receptor in rat cerebellar membranes at 1 uM concentration; format: cell membranes; details: Membrane
Cannabinoid receptor (Rattus norvegicus), sequence (P20272 whole entry, looked up): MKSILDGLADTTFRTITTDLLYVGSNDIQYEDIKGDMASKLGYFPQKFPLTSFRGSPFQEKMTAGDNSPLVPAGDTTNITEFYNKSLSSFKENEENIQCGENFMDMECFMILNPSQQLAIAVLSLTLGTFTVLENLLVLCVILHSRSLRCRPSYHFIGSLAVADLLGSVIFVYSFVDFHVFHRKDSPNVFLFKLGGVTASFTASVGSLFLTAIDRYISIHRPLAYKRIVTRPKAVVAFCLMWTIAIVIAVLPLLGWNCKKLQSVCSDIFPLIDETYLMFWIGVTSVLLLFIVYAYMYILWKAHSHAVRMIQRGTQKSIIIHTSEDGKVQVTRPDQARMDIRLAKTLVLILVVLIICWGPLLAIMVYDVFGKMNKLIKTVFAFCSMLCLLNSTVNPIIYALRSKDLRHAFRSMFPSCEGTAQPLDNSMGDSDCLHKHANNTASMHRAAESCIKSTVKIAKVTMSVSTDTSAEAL
Cannabinoid receptor (Rattus norvegicus), sequence (Q9QZN9 whole entry, looked up): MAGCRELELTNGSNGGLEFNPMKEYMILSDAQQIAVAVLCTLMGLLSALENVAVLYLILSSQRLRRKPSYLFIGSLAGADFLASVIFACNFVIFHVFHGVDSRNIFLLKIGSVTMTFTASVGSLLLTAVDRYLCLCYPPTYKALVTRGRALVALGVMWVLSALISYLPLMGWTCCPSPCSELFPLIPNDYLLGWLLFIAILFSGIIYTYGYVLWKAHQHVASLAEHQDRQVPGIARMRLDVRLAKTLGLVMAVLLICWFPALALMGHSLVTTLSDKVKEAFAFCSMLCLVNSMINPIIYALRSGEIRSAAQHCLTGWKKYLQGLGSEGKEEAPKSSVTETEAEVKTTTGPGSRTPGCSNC

Mus musculus [4] = assay: Effective dose required for inhibition of oral acetylcholine (ACh) writhing activity in mice at 10 mg/Kg dose; format: functional
Mus musculus [5] = species on record: Mus musculus; assay: Effective dose required for inhibition of oral acetylcholine (ACh) writhing activity in mice; format: functional
[6] = Compound was tested for inhibitory activity against prostaglandin synthetase in mouse brain microsomes

SMILES | IC50 (Mus musculus [1]) | IC50 (Cannabinoid receptor) | other results
C[S+]([O-])c1ccc(/C=C2\C=C(CCN3CCOCC3)c3ccccc32)cc1 (centres undefined) | 0.19 µM |  | 
COc1ccc(C=C2C(C)=C(CCN3CCOCC3)c3ccccc32)c2ccccc12 | 0.35 µM |  | inhibition in vivo at 100 mg/kg (Mus musculus [2]): 39%
COc1ccc(/C=C2\C=C(CCN3CCOCC3)c3ccccc32)c2ccccc12 | 0.008 µM | 0.9 µM | 
COc1ccc(/C=C2\C=C(CCN3CCOCC3)c3ccccc32)cc1OC | 0.019 µM | 28 µM | 
Oc1ccc(/C=C2\C=C(CCN3CCOCC3)c3ccccc32)c2ccccc12 |  | 97 µM | 
CC1=C(CCN2CCOCC2)c2ccccc2C1=Cc1cccc2ccccc12 | 0.045 µM | 10 µM | 
C1=C(CCN2CCOCC2)c2ccccc2/C1=C/c1ccccc1 | 0.079 µM |  | inhibition [3]: 33%
C1=C(CCN2CCOCC2)c2ccccc2/C1=C/c1cccc2ccccc12 | 0.007 µM | 1 µM | inhibition in vivo at 10 mg/kg (Mus musculus [4]): 83%
COc1ccc(C=C2C(C)=C(CCN3CCOCC3)c3ccccc32)cc1 |  | 45 µM | inhibition in vivo at 100 mg/kg (Mus musculus [2]): 30%
COc1ccc(/C=C2\C=C(CCN3CCOCC3)c3ccccc32)cc1 | 0.08 µM | 0.058 µM | 
COc1ccc(C(=O)c2c(C)n(CCN3CCOCC3)c3ccccc23)cc1 [PRAVADOLINE] | 0.53 µM |  | ED50 (Mus musculus [5]): 41 mg/kg; IC50 [6]: 3.5 µM
CSc1ccc(/C=C2\C=C(CCN3CCOCC3)c3ccccc32)cc1 |  | 96 µM | ED50 (Mus musculus [5]): 50 mg/kg
